Calls of active or inactive are those of the source.
Assays:
[1] = biological target: Serine/threonine-protein kinase pim-1 (Homo sapiens, UniProt P11309); type: functional
[2] = biological target: Glycogen synthase kinase-3 beta (Homo sapiens, UniProt P49841); type: functional;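 also: value comes from a broad kinome profiling panel, with GSK3B as the panel member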
[3] = biological target: MAP kinase-interacting serine/threonine-protein kinase 2 (Homo sapiens, UniProt Q9HBH9); type: functional
[4] = biological target: Dual specificity protein kinase CLK4 (Homo sapiens, UniProt Q9HAZ1); type: functional
[5] = biological target: cAMP-dependent protein kinase catalytic subunit alpha (Homo sapiens, UniProt P17612); type: functional
[6] = biological target: Cyclin-dependent kinase 2 (Homo sapiens, UniProt P24941); type: functional;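 also: CDK2 measured as one member of a broad kinome profiling panel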
[7] = biological target: Cell division cycle 7-related protein kinase (Homo sapiens, UniProt O00311); type: functional;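 also: value obtained from a kinome-wide kinase panel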
[8] = biological target: Interleukin-1 receptor-associated kinase 4 (Homo sapiens, UniProt Q9NWZ3); type: functional
[9] = biological target: Homeodomain-interacting protein kinase 2 (Homo sapiens, UniProt Q9H2X6); type: functional;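 also: measured within a kinome-wide kinase profiling panel, HIPK2 being one panel member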
[10] = biological target: Mitogen-activated protein kinase kinase kinase kinase 4 (Homo sapiens, UniProt O95819); type: functional
Aurora kinase A = Aurora kinase A (Homo sapiens, UniProt O14965); type: functional;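 also: value from the Navigating the Kinome kinase panel profiling, panel entry STK6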
[11] = biological target: Dual specificity tyrosine-phosphorylation-regulated kinase 1A (Rattus norvegicus, UniProt Q63470); type: biochemical, Homo sapiens
[12] = biological target: Inhibitor of nuclear factor kappa-B kinase subunit beta (Homo sapiens, UniProt O14920); type: functional
[13] = biological target: Serine/threonine-protein kinase pim-3 (Homo sapiens, UniProt Q86V86); type: functional;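 also: value obtained as one member of a broad kinase panel profiling effort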
[14] = biological target: Proto-oncogene tyrosine-protein kinase receptor Ret (Homo sapiens, UniProt P07949); type: functional;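 also: measured within a kinome-wide profiling panel, RET as the panel member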
[15] = biological target: ALK tyrosine kinase receptor (Homo sapiens, UniProt Q9UM73); type: functional;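 also: ALK tested as one member of a kinase panel screen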
[16] = biological target: Macrophage colony-stimulating factor 1 receptor (Homo sapiens, UniProt P07333); type: functional;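 also: value comes from the Navigating the Kinome screening panel, CSF1R member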
[17] = biological target: Vascular endothelial growth factor receptor 2 (Homo sapiens, UniProt P35968); type: functional
[18] = biological target: RAC-gamma serine/threonine-protein kinase (Homo sapiens, UniProt Q9Y243); type: functional
[19] = biological target: Serine/threonine-protein kinase PLK1 (Homo sapiens, UniProt P53350); type: functional;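 also: PLK1 measured as one member of a kinome-wide profiling panel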
[20] = biological target: Serine/threonine-protein kinase Chk1 (Homo sapiens, UniProt O14757); type: functional;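 also: measured as one member of a kinome-wide kinase profiling panel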
[21] = biological target: Serine/threonine-protein kinase PLK4 (Homo sapiens, UniProt O00444); type: functional;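 also: PLK4 measured as one member of a kinome-wide kinase profiling panel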
[22] = biological target: Serine/threonine-protein kinase PLK3 (Homo sapiens, UniProt Q9H4B4); type: functional
[23] = biological target: Hepatocyte growth factor receptor (Homo sapiens, UniProt P08581); type: functional;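 also: kinase panel profiling across the kinome, with MET as the panel member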
[24] = biological target: Non-receptor tyrosine-protein kinase TYK2 (Homo sapiens, UniProt P29597); type: functional
Insulin receptor = Insulin receptor (Homo sapiens, UniProt P06213); type: functional;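 also: insulin receptor kinase tested as one member of a kinome-wide kinase panel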
[25] = biological target: Fibroblast growth factor receptor 1 (Homo sapiens, UniProt P11362); type: functional
[26] = biological target: RAC-alpha serine/threonine-protein kinase (Homo sapiens, UniProt P31749); type: functional;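 also: AKT1 affinity measured as one member of a kinome-wide kinase profiling panel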
[27] = biological target: Protein-tyrosine kinase 6 (Homo sapiens, UniProt Q13882); type: functional
[28] = biological target: Receptor-type tyrosine-protein kinase FLT3 (Homo sapiens, UniProt P36888); type: functional;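 also: FLT3 was tested as one member of a kinome-wide kinase panel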
[29] = biological target: Vascular endothelial growth factor receptor 1 (Homo sapiens, UniProt P17948); type: functional;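 also: measured within a kinome-wide profiling panel, FLT1 as the panel member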
[30] = biological target: Protein disulfide-isomerase (Homo sapiens, UniProt P07237); assay: inhibition of PDI-driven insulin aggregation – biochemical, turbidity, absorbance, cherry-picked samples, dose response (AID 602350); type: functional
[31] = biological target: Dual specificity tyrosine-phosphorylation-regulated kinase 1A (Homo sapiens, UniProt Q13627); type: functional;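 also: measured against DYRK1A as one member of a broad kinome profiling panel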
SRSF protein kinase 1 = SRSF protein kinase 1 (Homo sapiens, UniProt Q96SB4); type: functional;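 also: measured as one member of a kinome-wide kinase profiling panel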
[32] = biological target: Casein kinase I isoform delta (Homo sapiens, UniProt P48730); type: functional;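 also: measured as one member (CSNK1D) of a kinome panel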
[33] = biological target: Homeodomain-interacting protein kinase 4 (Homo sapiens, UniProt Q8NE63); type: functional
[34] = biological target: T1, Orexin/Hypocretin receptor type 1 (Homo sapiens, UniProt O43613); assay: (§1) Fluorescence-based cell-based high throughput dose response assay for antagonists of the orexin 1 receptor (OX1R; HCRTR1). [Related pubchem assays (depositor defined):AID434989, AID435008, AID463079, AID485270, AID492963, AID492964, AID492965, AID493232, AID504717, AID504718]; type: functional
CHO-K1 = assay: (§2) Counterscreen for antagonists of the orexin 1 receptor (OX1R; HCRTR1): Homogeneous time resolved fluorescence (HTRF)-based cell-based dose response assay to identify antagonists of the parental CHO-K1 cell line. [Related pubchem assays (depositor defined):AID434989, AID435008, AID463079, AID485270, AID492963, AID492964, AID492965, AID493232, AID504699, AID504701]; type: functional; settings: Cricetulus griseus
Orexin receptor type 2 [35] = biological target: T2, Orexin receptor type 2 (Homo sapiens, UniProt O43614); assay: Counterscreen assay for antagonists of the orexin 1 receptor (OX1R; HCRTR1): Homogeneous Time Resolved Fluorescence (HTRF)-based cell-based dose response assay for antagonists of the orexin 2 receptor (OX2R; HCRTR2), run by assay provider.; type: functional
Orexin receptor type 2 [36] = biological target: T2, Orexin receptor type 2; assay: Counterscreen assay for antagonists of the orexin 1 receptor (OX1R; HCRTR1): Fluorescence-based cell-based dose response assay for antagonists of the orexin 2 receptor (OX2R; HCRTR2), run by assay provider.; type: functional
[37] = biological target: T1, Orexin/Hypocretin receptor type 1; assay: as §1, with “Homogeneous Time Resolved Fluorescence (HTRF)-based” for “Fluorescence-based”; type: functional
[38] = as §2, with “Fluorescence-based” for “Homogeneous time resolved fluorescence (HTRF)-based”, “cell-based high throughput” for “cell-based”, “CHO” for “CHO-K1”; type: functional

Sequence of Serine/threonine-protein kinase pim-1 (P11309 whole entry): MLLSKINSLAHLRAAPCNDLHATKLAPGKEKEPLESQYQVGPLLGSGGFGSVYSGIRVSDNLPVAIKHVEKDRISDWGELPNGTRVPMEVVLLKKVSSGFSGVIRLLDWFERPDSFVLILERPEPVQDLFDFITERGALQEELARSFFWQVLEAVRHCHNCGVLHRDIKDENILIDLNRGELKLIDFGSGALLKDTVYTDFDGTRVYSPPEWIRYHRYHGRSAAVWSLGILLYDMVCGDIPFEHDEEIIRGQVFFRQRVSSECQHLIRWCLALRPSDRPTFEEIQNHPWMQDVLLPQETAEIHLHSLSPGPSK
Sequence of Dual specificity protein kinase CLK4 (Q9HAZ1 whole entry): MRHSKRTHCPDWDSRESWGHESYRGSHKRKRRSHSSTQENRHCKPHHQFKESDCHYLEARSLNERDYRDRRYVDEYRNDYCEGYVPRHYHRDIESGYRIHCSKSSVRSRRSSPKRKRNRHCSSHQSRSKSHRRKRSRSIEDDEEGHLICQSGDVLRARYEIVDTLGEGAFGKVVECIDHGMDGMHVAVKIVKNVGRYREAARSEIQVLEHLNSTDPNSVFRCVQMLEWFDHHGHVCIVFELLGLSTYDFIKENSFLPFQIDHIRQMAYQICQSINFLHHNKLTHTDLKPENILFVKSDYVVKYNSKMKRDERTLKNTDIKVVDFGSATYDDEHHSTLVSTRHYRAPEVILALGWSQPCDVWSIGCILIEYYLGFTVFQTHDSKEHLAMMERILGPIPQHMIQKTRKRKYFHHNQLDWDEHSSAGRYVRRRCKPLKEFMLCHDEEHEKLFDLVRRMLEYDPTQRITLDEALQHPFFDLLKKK
T1 sequence (O43613 whole entry): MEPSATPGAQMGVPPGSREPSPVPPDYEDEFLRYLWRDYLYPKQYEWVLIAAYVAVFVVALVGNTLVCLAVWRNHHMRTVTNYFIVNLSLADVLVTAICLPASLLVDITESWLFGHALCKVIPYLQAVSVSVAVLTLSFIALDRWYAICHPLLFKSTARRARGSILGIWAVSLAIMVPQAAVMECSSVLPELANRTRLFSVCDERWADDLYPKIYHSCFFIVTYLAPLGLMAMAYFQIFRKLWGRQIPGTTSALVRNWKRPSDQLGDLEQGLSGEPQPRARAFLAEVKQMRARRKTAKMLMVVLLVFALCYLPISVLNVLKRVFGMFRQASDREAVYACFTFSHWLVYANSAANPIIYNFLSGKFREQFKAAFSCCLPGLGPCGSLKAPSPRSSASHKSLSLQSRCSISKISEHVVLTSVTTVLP
T2 sequence (O43614 whole entry): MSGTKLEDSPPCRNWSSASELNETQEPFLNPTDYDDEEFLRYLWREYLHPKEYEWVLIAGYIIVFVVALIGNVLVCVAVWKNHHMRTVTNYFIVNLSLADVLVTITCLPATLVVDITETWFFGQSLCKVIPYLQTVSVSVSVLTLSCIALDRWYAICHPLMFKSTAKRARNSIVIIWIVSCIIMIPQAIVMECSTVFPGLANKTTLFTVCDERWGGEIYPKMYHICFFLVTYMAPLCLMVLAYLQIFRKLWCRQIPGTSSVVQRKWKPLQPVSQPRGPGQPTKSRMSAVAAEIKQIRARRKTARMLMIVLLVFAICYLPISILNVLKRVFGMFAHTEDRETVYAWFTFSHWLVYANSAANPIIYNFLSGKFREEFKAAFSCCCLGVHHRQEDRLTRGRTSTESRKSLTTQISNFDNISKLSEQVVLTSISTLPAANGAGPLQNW
Sequence of Protein-tyrosine kinase 6 (Q13882 whole entry): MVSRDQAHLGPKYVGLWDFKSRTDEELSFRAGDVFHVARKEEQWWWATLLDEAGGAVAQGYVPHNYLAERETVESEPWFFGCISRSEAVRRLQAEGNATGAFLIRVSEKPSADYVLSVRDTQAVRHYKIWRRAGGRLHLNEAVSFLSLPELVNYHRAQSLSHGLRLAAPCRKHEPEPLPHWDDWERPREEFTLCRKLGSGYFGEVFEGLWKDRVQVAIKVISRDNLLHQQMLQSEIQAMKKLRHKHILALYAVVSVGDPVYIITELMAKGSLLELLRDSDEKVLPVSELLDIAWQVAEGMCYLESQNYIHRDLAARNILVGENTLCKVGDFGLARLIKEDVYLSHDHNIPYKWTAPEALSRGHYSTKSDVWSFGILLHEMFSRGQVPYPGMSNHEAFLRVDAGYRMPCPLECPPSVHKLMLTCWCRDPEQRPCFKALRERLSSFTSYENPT
Sequence of Serine/threonine-protein kinase PLK4 (O00444 whole entry): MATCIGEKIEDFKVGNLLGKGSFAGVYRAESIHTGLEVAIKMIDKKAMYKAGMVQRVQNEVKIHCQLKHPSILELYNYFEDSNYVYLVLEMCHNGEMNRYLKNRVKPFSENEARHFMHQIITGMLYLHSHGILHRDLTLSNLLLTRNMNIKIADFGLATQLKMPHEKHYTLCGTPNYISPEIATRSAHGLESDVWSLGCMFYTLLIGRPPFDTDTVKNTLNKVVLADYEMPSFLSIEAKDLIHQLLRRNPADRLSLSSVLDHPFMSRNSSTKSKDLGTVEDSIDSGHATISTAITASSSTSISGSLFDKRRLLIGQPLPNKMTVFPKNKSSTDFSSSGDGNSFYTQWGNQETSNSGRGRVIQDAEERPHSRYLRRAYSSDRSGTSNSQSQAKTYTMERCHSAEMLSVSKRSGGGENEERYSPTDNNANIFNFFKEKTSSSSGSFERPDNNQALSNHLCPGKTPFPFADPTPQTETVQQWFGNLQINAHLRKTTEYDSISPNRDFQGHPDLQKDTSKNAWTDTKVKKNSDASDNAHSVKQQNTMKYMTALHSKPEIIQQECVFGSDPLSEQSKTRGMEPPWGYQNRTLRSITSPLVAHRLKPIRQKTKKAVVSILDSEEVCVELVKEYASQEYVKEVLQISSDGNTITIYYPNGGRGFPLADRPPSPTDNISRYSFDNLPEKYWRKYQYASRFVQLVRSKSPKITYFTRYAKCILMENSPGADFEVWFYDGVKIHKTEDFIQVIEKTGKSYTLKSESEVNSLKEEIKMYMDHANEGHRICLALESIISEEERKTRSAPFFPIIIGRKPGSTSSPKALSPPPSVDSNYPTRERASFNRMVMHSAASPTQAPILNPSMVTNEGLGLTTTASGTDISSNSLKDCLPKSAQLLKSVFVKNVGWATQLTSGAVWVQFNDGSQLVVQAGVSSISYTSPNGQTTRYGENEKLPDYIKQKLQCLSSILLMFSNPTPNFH
Sequence of Receptor-type tyrosine-protein kinase FLT3 (P36888 whole entry): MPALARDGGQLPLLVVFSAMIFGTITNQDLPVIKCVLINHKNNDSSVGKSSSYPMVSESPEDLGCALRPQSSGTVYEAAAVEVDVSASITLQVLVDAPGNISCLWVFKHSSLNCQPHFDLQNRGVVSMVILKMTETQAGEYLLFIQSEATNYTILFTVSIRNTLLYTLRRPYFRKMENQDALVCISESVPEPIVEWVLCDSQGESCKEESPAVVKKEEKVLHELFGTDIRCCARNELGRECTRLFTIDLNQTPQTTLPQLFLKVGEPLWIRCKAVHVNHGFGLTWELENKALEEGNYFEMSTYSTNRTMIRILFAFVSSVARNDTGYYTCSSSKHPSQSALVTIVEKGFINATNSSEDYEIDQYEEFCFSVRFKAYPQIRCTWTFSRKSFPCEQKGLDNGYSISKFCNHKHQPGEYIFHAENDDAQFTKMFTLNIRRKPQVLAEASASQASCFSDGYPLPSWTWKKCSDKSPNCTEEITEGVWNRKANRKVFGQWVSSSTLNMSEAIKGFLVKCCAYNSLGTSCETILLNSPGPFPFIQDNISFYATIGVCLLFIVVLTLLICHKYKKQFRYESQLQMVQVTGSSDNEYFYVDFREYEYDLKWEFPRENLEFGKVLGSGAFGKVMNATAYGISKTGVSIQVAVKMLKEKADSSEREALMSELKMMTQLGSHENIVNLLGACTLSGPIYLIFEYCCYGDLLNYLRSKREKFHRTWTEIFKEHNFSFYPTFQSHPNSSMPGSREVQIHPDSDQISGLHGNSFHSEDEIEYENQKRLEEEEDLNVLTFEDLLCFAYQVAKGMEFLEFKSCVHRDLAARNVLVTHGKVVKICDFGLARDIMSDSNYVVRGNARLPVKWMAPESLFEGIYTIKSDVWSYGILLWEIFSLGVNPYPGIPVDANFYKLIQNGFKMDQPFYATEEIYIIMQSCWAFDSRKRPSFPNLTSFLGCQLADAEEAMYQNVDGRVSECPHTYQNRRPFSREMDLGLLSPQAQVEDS
Sequence of Casein kinase I isoform delta (P48730 whole entry, canonical isoform): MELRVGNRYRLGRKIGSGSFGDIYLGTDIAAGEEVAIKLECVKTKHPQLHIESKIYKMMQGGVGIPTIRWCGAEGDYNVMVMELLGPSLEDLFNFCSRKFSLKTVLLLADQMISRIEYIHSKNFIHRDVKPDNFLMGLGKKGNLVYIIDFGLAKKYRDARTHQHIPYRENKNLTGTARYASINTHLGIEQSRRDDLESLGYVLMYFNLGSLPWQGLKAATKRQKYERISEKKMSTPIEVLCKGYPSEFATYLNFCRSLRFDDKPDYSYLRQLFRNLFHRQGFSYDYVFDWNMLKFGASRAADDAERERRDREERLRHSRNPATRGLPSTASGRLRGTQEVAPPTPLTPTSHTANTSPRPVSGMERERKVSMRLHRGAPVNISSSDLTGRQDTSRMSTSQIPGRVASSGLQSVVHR
Sequence of Glycogen synthase kinase-3 beta (P49841 whole entry): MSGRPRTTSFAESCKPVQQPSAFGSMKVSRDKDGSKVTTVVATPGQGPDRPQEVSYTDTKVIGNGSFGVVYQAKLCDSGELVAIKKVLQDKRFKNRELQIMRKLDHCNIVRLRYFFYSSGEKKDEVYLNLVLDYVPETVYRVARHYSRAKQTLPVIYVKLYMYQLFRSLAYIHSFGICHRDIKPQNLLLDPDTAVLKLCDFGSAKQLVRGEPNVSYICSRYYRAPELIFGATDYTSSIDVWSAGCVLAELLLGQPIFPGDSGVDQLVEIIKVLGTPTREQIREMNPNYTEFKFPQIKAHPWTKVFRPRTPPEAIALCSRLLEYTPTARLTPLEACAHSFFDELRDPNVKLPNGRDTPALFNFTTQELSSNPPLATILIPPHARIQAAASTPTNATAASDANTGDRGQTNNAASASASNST

For Cc1sc2[nH]c(=O)n3nc(-c4ccncc4)nc3c2c1C, the Ki [1] was 0.794 µM (active), the Ki [2] was 0.631 µM (active) and the Ki [3] was > 10 µM (inactive). For the same molecule, the Ki [4] was 1.26 µM (active), the Ki [5] was > 7.94 µM (inactive) and the Ki [6] was > 7.94 µM (inactive). For the same molecule, the Ki [7] was 0.02 µM (active), the Ki [8] was > 10 µM (inactive) and the Ki [9] was 2 µM (active). The Ki [10] was 5.01 µM (active).
With c1ccc2c(c1)[nH]c1cnccc12 [NORHARMANE] the Ki [1] was 6.31 µM (active), the Ki (Aurora kinase A) was 15.8 µM (active) and the AC50 [11] was 8.75 µM (active). The Ki [12] was 7.94 µM (active).
For Nc1nnc2ccc(-c3ccccc3)cn12, the Ki [1] was 10 µM (active), the Ki [13] was 12.6 µM (active) and the Ki [14] was 10 µM (active). For the same molecule, the Ki [15] was 12.6 µM (active), the Ki [16] was > 25.1 µM (inactive) and the Ki [17] was 15.8 µM (active). The Ki [18] was > 100 µM (inactive), the Ki [19] was > 79.4 µM (inactive) and the Ki [20] was > 79.4 µM (inactive). For the same molecule, the Ki [21] was > 39.8 µM (inactive), the Ki [22] was > 79.4 µM (inactive) and the Ki [23] was > 31.6 µM (inactive). The Ki [24] was > 20 µM (inactive), the Ki (Insulin receptor) was > 50.1 µM (inactive) and the Ki [25] was 10 µM (active). For the same molecule, the Ki [26] was > 79.4 µM (inactive), the Ki [27] was > 25.1 µM (inactive) and the Ki [28] was 5.01 µM (active). For the same molecule, the Ki [29] was 2 µM (active).
In the case of CC(C)Sc1nnc([C@H](Cc2c[nH]c3ccccc23)NC(=O)OC(C)(C)C)o1, the AC50 [30] is reported as 19.5 µM (active).
For CC(C)n1cnc2c(NCc3ccccc3)nc(NCCO)nc21, the Ki [31] was 3.16 µM (active), the Ki (SRSF protein kinase 1) was 6.31 µM (active) and the Ki [32] was 2.51 µM (active). For the same molecule, the Ki [4] was 2.51 µM (active) and the Ki [33] was 2 µM (active).
With Cc1ccc(NC2=NC(=O)/C(=C/c3cccn3C)S2)cc1C the IC50 [34] was 2.24 µM (active), the IC50 (CHO-K1) was > 66.2 µM (inactive) and the IC50 (Orexin receptor type 2 [35]) was > 50 µM (inactive). The IC50 (Orexin receptor type 2 [36]) was > 88.8 µM (inactive), the IC50 [37] was 2.2 µM (active) and the IC50 [38] was > 49.7 µM (inactive).

Source: ChEMBL document CHEMBL1201862, “PubChem BioAssay data set” (2004)
